Laboratory results taken from patent US9113629B2, “4-amino-6-(4-substituted-phenyl)-picolinates and 6-amino-2-(4-substituted-phenyl)-pyrimidine-4-carboxylates and their use as herbicides” (DOW AGROSCIENCES LLC, priority 2013, dated 2015).

Tests used:
[1] = system: HORSS: barley, including spring and winter (Hordeum vulgare); experiment: Post-emergent Test III, herbicidal activity in wheat and barley; type: in vivo; details: Table 9, 21 d; for pest or weed control at 35 g/ha: 35 g ai/ha; for pest or weed control at 70 g/ha: 70 g ai/ha; for GR20 HORSS: dose for 20 percent growth reduction, probit analysis
Procedure: (§1) Post-emergent Test III. Seeds of the desired test plant species were planted in Sun Gro MetroMix® 306 planting mixture, which typically has a pH of 6.0 to 6.8 and an organic matter content of about 30 percent, in plastic pots with a surface area of 103.2 square centimeters (cm^2). When required to ensure good germination and healthy plants, a fungicide treatment and/or other chemical or physical treatment was applied. The plants were grown for 7-36 days (d) in a greenhouse with an approximate 14 hour (h) photoperiod which was maintained at about 18° C. during the day and 17° C. during the night. Nutrients and water were added on a regular basis and supplemental lighting was provided with overhead metal halide 1000-Watt lamps as necessary. The plants were employed for testing when they reached the second or third true leaf stage.
(§2) A weighed amount, determined by the highest rate to be tested, of each test compound was placed in a 25 mL glass vial and was dissolved in 4 mL of a 97:3 v/v mixture of acetone and DMSO to obtain concentrated stock solutions. […] The concentrated stock solutions obtained were diluted with 20 mL of an aqueous mixture containing acetone, water, isopropyl alcohol, DMSO, Agri-Dex crop oil concentrate, and X-77 surfactant in a 48:39:10:1.5:1.5:0.02 v/v ratio to obtain spray solutions containing the highest application rates. Additional application rates were obtained by serial dilution of 12 mL of the high rate solution into a solution containing 2 mL of 97:3 v/v mixture of acetone and DMSO and 10 mL of an aqueous mixture containing acetone, water, isopropyl alcohol, DMSO, Agri-Dex crop oil concentrate, and X-77 surfactant in a 48:39:10:1.5:1.5:0.02 v/v ratio to obtain ½×, ¼×, ⅛× and 1/16× rates of the high rate. Compound requirements are based upon a 12 mL application volume at a rate of 187 liters per hectare (L/ha). Formulated compounds were applied to the plant material with an overhead Mandel track sprayer equipped with 8002E nozzles calibrated to deliver 187 L/ha over an application area of 0.503 square meters at a spray height of 18 inches (43 cm) above the average plant canopy height. Control plants were sprayed in the same manner with the solvent blank.
(§3) The treated plants and control plants were placed in a greenhouse as described above and watered by subirrigation to prevent wash-off of the test compounds. After 21 d, the condition of the test plants as compared with that of the untreated plants was determined visually and scored on a scale of 0 to 100 percent where 0 corresponds to no injury and 100 corresponds to complete kill.
(§4) By applying the well-accepted probit analysis as described by J. Berkson in Journal of the American Statistical Society, 48, 565 (1953) and by D. Finney in “Probit Analysis” Cambridge University Press (1952), herbicidal injury of a specific compound at various rates can be used to calculate GR20, GR50, GR80 and GR90 values, which are defined as growth reduction factors that correspond to the effective dose of herbicide required to provide plant growth reduction (GR) of 20 percent, 50 percent, 80 percent and 90 percent, respectively. Probit analysis was applied to data collected from multiple dose rates of individual compounds utilizing the procedures explained in the following examples. The analysis of those dose rates is captured in the following tables.

[2] = system: SETVI: green foxtail (Setaria viridis); experiment: as above; type: in vivo; details: Table 9, 21 d; for pest or weed control at 35 g/ha: 35 g ai/ha; for pest or weed control at 70 g/ha: 70 g ai/ha; for GR50 SETVI: dose for 50 percent growth reduction; for GR50 SETVI / GR80 SETVI: probit analysis; for GR80 SETVI: dose for 80 percent growth reduction
Procedure: as §1, §2, §3, §4

[3] = system: TRZSS: wheat, including spring and winter (Triticum aestivum); experiment: as above; type: in vivo; details: Table 9, 21 d; for GR20 TRZSS: dose for 20 percent growth reduction, probit analysis; for pest or weed control at 35 g/ha: 35 g ai/ha; for pest or weed control at 70 g/ha: 70 g ai/ha
Procedure: as §1, §2, §3, §4

[4] = system: KCHSC: kochia (Kochia scoparia); experiment: as above; type: in vivo; details: Table 9, 21 d; for pest or weed control at 35 g/ha: 35 g ai/ha; for pest or weed control at 70 g/ha: 70 g ai/ha; for GR50 KCHSC: dose for 50 percent growth reduction; for GR50 KCHSC / GR80 KCHSC: probit analysis; for GR80 KCHSC: dose for 80 percent growth reduction
Procedure: as §1, §2, §3, §4

[5] = system: LOLSS: ryegrass including, Italian ryegrass (Lolium multiflorum), rigid ryegrass (Lolium rigidum), annual ryegrass (Lolium multiflorum subsp. Gaudini); experiment: as above; type: in vivo; details: Table 9, probit analysis, 21 d; for GR50 LOLSS: dose for 50 percent growth reduction; for GR80 LOLSS: dose for 80 percent growth reduction
Procedure: as §1, §2, §3, §4

[6] = system: APESV: bentgrass (Apera spica-venti); experiment: as above; type: in vivo; details: Table 9, 21 d; for pest or weed control at 35 g/ha: 35 g ai/ha; for pest or weed control at 70 g/ha: 70 g ai/ha; for GR50 APESV: dose for 50 percent growth reduction; for GR50 APESV / GR80 APESV: probit analysis; for GR80 APESV: dose for 80 percent growth reduction
Procedure: as §1, §2, §3, §4

[7] = as above; type: in vivo, Lolium multiflorum, Lolium rigidum; details: Lolium multiflorum, post-emergence, 504 h, Table 9, post-emergent, 21 d, read-out: Visual Growth Reduction (%) 21 Days After Application LOLSS; for pest or weed control at 35 g/ha: 35 g ai/ha; for pest or weed control at 70 g/ha: 70 g ai/ha
Procedure: as §1, §2, §3, §4

[8] = Hordeum vulgare, post-emergence, 504 h, post-emergent, read-out: Visual Growth Reduction (%) 21 Days After Application HORSS
[9] = Setaria viridis, post-emergence, 504 h, post-emergent, read-out: Visual Growth Reduction (%) 21 Days After Application SETVI
[10] = Triticum aestivum, post-emergence, 504 h, post-emergent, read-out: Visual Growth Reduction (%) 21 Days After Application TRZSS
[11] = Bassia scoparia, post-emergence, 504 h, post-emergent, read-out: Visual Growth Reduction (%) 21 Days After Application KCHSC
[12] = Apera spica-venti, post-emergence, 504 h, post-emergent, read-out: Visual Growth Reduction (%) 21 Days After Application APESV

COC(=O)c1nc(-c2ccc(Br)cc2)c(Cl)c(N)c1Cl [Compound 47]
pest or weed control at 35 g/ha [1, 8]: 95 to 100% | pest or weed control at 70 g/ha [1, 8]: 95 to 100% | pest or weed control at 140 g/ha ([1]; Hordeum vulgare, post-emergence, 504 h, 140 g ai/ha, post-emergent, read-out: Visual Growth Reduction (%) 21 Days After Application HORSS): 95 to 100% | GR20 HORSS [1]: 1 g ai/ha | pest or weed control at 35 g/ha [2, 9]: 0 to 29% | pest or weed control at 70 g/ha [2, 9]: 75 to 84% | pest or weed control at 140 g/ha ([2]; Setaria viridis, post-emergence, 504 h, 140 g ai/ha, post-emergent, read-out: Visual Growth Reduction (%) 21 Days After Application SETVI): 85 to 94% | GR50 SETVI [2]: 51 g ai/ha | GR80 SETVI [2]: 104 g ai/ha | GR20 TRZSS [3]: 1 g ai/ha | pest or weed control at 35 g/ha [3, 10]: 85 to 94% | pest or weed control at 70 g/ha [3, 10]: 95 to 100% | pest or weed control at 140 g/ha ([3]; Triticum aestivum, post-emergence, 504 h, 140 g ai/ha, post-emergent, read-out: Visual Growth Reduction (%) 21 Days After Application TRZSS): 95 to 100% | pest or weed control at 35 g/ha [4, 11]: 85 to 94% | pest or weed control at 70 g/ha [4, 11]: 75 to 84% | pest or weed control at 140 g/ha ([4]; Bassia scoparia, post-emergence, 504 h, 140 g ai/ha, post-emergent, read-out: Visual Growth Reduction (%) 21 Days After Application KCHSC): 95 to 100% | GR50 KCHSC [4]: 20 g ai/ha | GR80 KCHSC [4]: 45 g ai/ha | GR50 LOLSS [5]: 80 g ai/ha | GR80 LOLSS [5]: >140 g ai/ha | pest or weed control at 35 g/ha [6, 12]: 95 to 100% | pest or weed control at 70 g/ha [6, 12]: 95 to 100% | pest or weed control at 140 g/ha ([6]; Apera spica-venti, post-emergence, 504 h, 140 g ai/ha, post-emergent, read-out: Visual Growth Reduction (%) 21 Days After Application APESV): 95 to 100% | GR50 APESV [6]: 10 g ai/ha | GR80 APESV [6]: 14 g ai/ha | pest or weed control at 35 g/ha [7]: 0 to 29% | pest or weed control at 70 g/ha [7]: 45 to 59% | pest or weed control at 140 g/ha ([7]; 140 g ai/ha): 60 to 74% | melting point: 159.6 to 161.1 °C

COC(=O)c1nc(-c2cc(F)c(Br)cc2F)c(F)c(N)c1Cl [Compound 51, methyl 4-amino-6-(4-bromo-2,5-difluorophenyl)-3-chloro-5-fluoropicolinate]
pest or weed control at 35 g/ha [1, 8]: 85 to 94% | pest or weed control at 70 g/ha [1, 8]: 95 to 100% | GR20 HORSS [1]: 1 g ai/ha | pest or weed control at 35 g/ha [2, 9]: 75 to 84% | pest or weed control at 70 g/ha [2, 9]: 85 to 94% | GR50 SETVI [2]: 24 g ai/ha | GR80 SETVI [2]: 49 g ai/ha | GR20 TRZSS [3]: 1 g ai/ha | pest or weed control at 35 g/ha [3, 10]: 85 to 94% | pest or weed control at 70 g/ha [3, 10]: 95 to 100% | pest or weed control at 35 g/ha [4, 11]: 85 to 94% | pest or weed control at 70 g/ha [4, 11]: 95 to 100% | GR50 KCHSC [4]: 4 g ai/ha | GR80 KCHSC [4]: 14 g ai/ha | GR50 LOLSS [5]: 3 g ai/ha | GR80 LOLSS [5]: 61 g ai/ha | pest or weed control at 35 g/ha [6, 12]: 85 to 94% | pest or weed control at 70 g/ha [6, 12]: 95 to 100% | GR50 APESV [6]: 3 g ai/ha | GR80 APESV [6]: 11 g ai/ha | pest or weed control at 35 g/ha [7]: 75 to 84% | pest or weed control at 70 g/ha [7]: 75 to 84% | melting point: 153 to 154 °C

C=Cc1c(C(=O)O)nc(-c2ccc(C#N)cc2)c(F)c1N [Compound 150]
pest or weed control at 35 g/ha [1, 8]: 30 to 44% | pest or weed control at 70 g/ha [1, 8]: 45 to 59% | GR20 HORSS [1]: 8 g ai/ha | pest or weed control at 35 g/ha [2, 9]: 0 to 29% | pest or weed control at 70 g/ha [2, 9]: 30 to 44% | GR50 SETVI [2]: 79 g ai/ha | GR80 SETVI [2]: >140 g ai/ha | GR20 TRZSS [3]: 1 g ai/ha | pest or weed control at 35 g/ha [3, 10]: 60 to 74% | pest or weed control at 70 g/ha [3, 10]: 60 to 74% | pest or weed control at 35 g/ha [4, 11]: 60 to 74% | pest or weed control at 70 g/ha [4, 11]: 60 to 74% | GR50 KCHSC [4]: 7 g ai/ha | GR80 KCHSC [4]: >140 g ai/ha | GR50 LOLSS [5]: >140 g ai/ha | GR80 LOLSS [5]: >140 g ai/ha | pest or weed control at 35 g/ha [6, 12]: 0 to 29% | pest or weed control at 70 g/ha [6, 12]: 0 to 29% | GR50 APESV [6]: >140 g ai/ha | GR80 APESV [6]: >140 g ai/ha | pest or weed control at 35 g/ha [7]: 0 to 29% | pest or weed control at 70 g/ha [7]: 0 to 29%
